# Assay results published in US6605145B1, “Alkylformamide surfactants” (Air Products and Chemicals, Inc., priority 1999, dated 2003).
# Legend:
# Type in all cases: physicochemical
# [1] = Solubility limit in water from plot of ln(conc.) vs surface tension at 0.1 b/s
# Excerpt: A plot of In(conc.) vs surface tension observed at 0.1 b/s was used to determine that the solubility limit of this material is 0.1 wt %.
# [2] = Dynamic surface tension of aqueous solutions, maximum bubble pressure method
# Excerpt: where R is a C5 to C11 alkyl group, provided that the organic compound is not an azole derivative fungicide. […] The maximum-bubble-pressure method of measuring surface tension is described in Langmuir 1986, 2, 428-432, which is incorporated by reference.
# In the following Examples dynamic surface tension data were obtained for aqueous solutions of various compounds using the maximum bubble pressure method at bubble rates from 0.1 bubbles/second (b/s) to 20 b/s. […] In practical terms, high bubble rates correspond to high printing speeds in lithographic printing, high spray or roller velocities in coating applications, and rapid application rates for agricultural products.
# [3] = Foam test based upon ASTM D 1173-53
# Method: The foaming properties of 0.1 wt % solutions of the N-octylpyrrolidone and the alkylformamide surfactants of this invention were examined using a procedure based upon ASTM D 1173-53. In this test, a 0.1 wt % solution of the surfactant is added from an elevated foam pipette to a foam receiver containing the same solution. The foam height is measured at the completion of the addition (“Initial Foam Height”) and the time required for the foam to dissipate at the air-liquid interface (“Time to 0 Foam”) is recorded. This test provides a comparison between the foaming characteristics of various surfactant solutions. In general, in coatings, inks, and agricultural formulations, foam is undesirable because it complicates handling and can lead to coating and print defects, and to inefficient application of agricultural materials.
compound,measurement,setting,value
"CCCCC(CC)CNC=O (stereo not drawn) [2-EHF, 2-ethylhexylformamide]",solubility limit,[1],0.2 wt %
same,Dynamic Surface Tension,"[2]; 0.03 wt % in water, 0.1 b/s",51.1 dyne/cm
same,Dynamic Surface Tension,"[2]; 0.03 wt % in water, 1 b/s",53.0 dyne/cm
same,Dynamic Surface Tension,"[2]; 0.03 wt % in water, 6 b/s",57.0 dyne/cm
same,Dynamic Surface Tension,"[2]; 0.03 wt % in water, 15 b/s",60.1 dyne/cm
same,Dynamic Surface Tension,"[2]; 0.03 wt % in water, 20 b/s",60.3 dyne/cm
same,Dynamic Surface Tension,"[2]; 0.05 wt % in water, 0.1 b/s",45.9 dyne/cm
same,Dynamic Surface Tension,"[2]; 0.05 wt % in water, 1 b/s",47.2 dyne/cm
same,Dynamic Surface Tension,"[2]; 0.05 wt % in water, 6 b/s",49.9 dyne/cm
same,Dynamic Surface Tension,"[2]; 0.05 wt % in water, 15 b/s",52.6 dyne/cm
same,Dynamic Surface Tension,"[2]; 0.05 wt % in water, 20 b/s",53.3 dyne/cm
same,Dynamic Surface Tension,"[2]; 0.07 wt % in water, 0.1 b/s",42.8 dyne/cm
same,Dynamic Surface Tension,"[2]; 0.07 wt % in water, 1 b/s",43.8 dyne/cm
same,Dynamic Surface Tension,"[2]; 0.07 wt % in water, 6 b/s",46.0 dyne/cm
same,Dynamic Surface Tension,"[2]; 0.07 wt % in water, 15 b/s",48.3 dyne/cm
same,Dynamic Surface Tension,"[2]; 0.07 wt % in water, 20 b/s",49.1 dyne/cm
same,Dynamic Surface Tension,"[2]; 0.1 wt % in water, 0.1 b/s",39.1 dyne/cm
same,Dynamic Surface Tension,"[2]; 0.1 wt % in water, 1 b/s",39.9 dyne/cm
same,Dynamic Surface Tension,"[2]; 0.1 wt % in water, 6 b/s",41.6 dyne/cm
same,Dynamic Surface Tension,"[2]; 0.1 wt % in water, 15 b/s",43.5 dyne/cm
same,Dynamic Surface Tension,"[2]; 0.1 wt % in water, 20 b/s",44.2 dyne/cm
same,Dynamic Surface Tension,"[2]; 0.2 wt % in water, 0.1 b/s",32.1 dyne/cm
same,Dynamic Surface Tension,"[2]; 0.2 wt % in water, 1 b/s",32.4 dyne/cm
same,Dynamic Surface Tension,"[2]; 0.2 wt % in water, 6 b/s",33.3 dyne/cm
same,Dynamic Surface Tension,"[2]; 0.2 wt % in water, 15 b/s",34.9 dyne/cm
same,Dynamic Surface Tension,"[2]; 0.2 wt % in water, 20 b/s",35.5 dyne/cm
"CCCCCCCCN1CCCC1=O [N-n-Octylpyrrolidone, reference compound]",Dynamic Surface Tension,"[2]; 0.003 wt % in water, 0.1 b/s",65.1 dyne/cm
same,Dynamic Surface Tension,"[2]; 0.003 wt % in water, 1 b/s",68.6 dyne/cm
same,Dynamic Surface Tension,"[2]; 0.003 wt % in water, 6 b/s",70.8 dyne/cm
same,Dynamic Surface Tension,"[2]; 0.003 wt % in water, 15 b/s",71.4 dyne/cm
same,Dynamic Surface Tension,"[2]; 0.003 wt % in water, 20 b/s",71.1 dyne/cm
same,Dynamic Surface Tension,"[2]; 0.03 wt % in water, 0.1 b/s",46.5 dyne/cm
same,Dynamic Surface Tension,"[2]; 0.03 wt % in water, 1 b/s",49.3 dyne/cm
same,Dynamic Surface Tension,"[2]; 0.03 wt % in water, 6 b/s",54.4 dyne/cm
same,Dynamic Surface Tension,"[2]; 0.03 wt % in water, 15 b/s",58.7 dyne/cm
same,Dynamic Surface Tension,"[2]; 0.03 wt % in water, 20 b/s",59.6 dyne/cm
same,Dynamic Surface Tension,"[2]; 0.07 wt % in water, 0.1 b/s",35.2 dyne/cm
same,Dynamic Surface Tension,"[2]; 0.07 wt % in water, 1 b/s",36.6 dyne/cm
same,Dynamic Surface Tension,"[2]; 0.07 wt % in water, 6 b/s",39.6 dyne/cm
same,Dynamic Surface Tension,"[2]; 0.07 wt % in water, 15 b/s",43.0 dyne/cm
same,Dynamic Surface Tension,"[2]; 0.07 wt % in water, 20 b/s",43.9 dyne/cm
same,Dynamic Surface Tension,"[2]; 0.1 wt % in water, 0.1 b/s",29.9 dyne/cm
same,Dynamic Surface Tension,"[2]; 0.1 wt % in water, 1 b/s",31.0 dyne/cm
same,Dynamic Surface Tension,"[2]; 0.1 wt % in water, 1 b/s, listed as n-octylpyrrolidone",below 30 dyne/cm
same,Dynamic Surface Tension,"[2]; 0.1 wt % in water, 6 b/s",33.4 dyne/cm
same,Dynamic Surface Tension,"[2]; 0.1 wt % in water, 15 b/s",36.5 dyne/cm
same,Dynamic Surface Tension,"[2]; 0.1 wt % in water, 20 b/s",37.2 dyne/cm
same,Dynamic Surface Tension,"[2]; 0.1 wt % in water, 20 b/s, listed as n-octylpyrrolidone",below 40 dyne/cm
same,Dynamic Surface Tension,"[2]; 0.21 wt % in water, 0.1 b/s",27.6 dyne/cm
same,Dynamic Surface Tension,"[2]; 0.21 wt % in water, 1 b/s",27.8 dyne/cm
same,Dynamic Surface Tension,"[2]; 0.21 wt % in water, 6 b/s",28.4 dyne/cm
same,Dynamic Surface Tension,"[2]; 0.21 wt % in water, 15 b/s",30.0 dyne/cm
same,Dynamic Surface Tension,"[2]; 0.21 wt % in water, 20 b/s",30.6 dyne/cm
same,Initial Foam Height,[3]; 0.1 wt % solution,4.0 cm
same,cm Foam after 5 min,[3]; 0.1 wt % solution,1.0 cm
same,foaming of aqueous solutions (in words),[3],quite foamy
"CCCCCCCCNC=O [drawing 13, n-octylformamide]",Initial Foam Height,[3]; 0.1 wt % solution,0.9 cm
same,Time to 0 Foam,[3]; 0.1 wt % solution,5 s
"CCCCC(CC)CNC=O (stereo not drawn) [drawing 14, 2-ethylhexylformamide]",Initial Foam Height,[3]; 0.1 wt % solution,0.5 cm
same,Time to 0 Foam,[3]; 0.1 wt % solution,4 s
"CCCCCCCCCCNC=O [drawing 16, n-decylformamide]",Initial Foam Height,[3]; 0.1 wt % solution,2.4 cm
same,Time to 0 Foam,[3]; 0.1 wt % solution,12 s
"CCCCCCCCCCNC=O [n-DF, n-decylformamide]",solubility limit,[1],0.01 wt %
same,Dynamic Surface Tension,"[2]; 0.005 wt % in water, 0.1 b/s",53.4 dyne/cm
same,Dynamic Surface Tension,"[2]; 0.005 wt % in water, 1 b/s",67.1 dyne/cm
same,Dynamic Surface Tension,"[2]; 0.005 wt % in water, 6 b/s",70.6 dyne/cm
same,Dynamic Surface Tension,"[2]; 0.005 wt % in water, 15 b/s",72.5 dyne/cm
same,Dynamic Surface Tension,"[2]; 0.005 wt % in water, 20 b/s",73.1 dyne/cm
same,Dynamic Surface Tension,"[2]; 0.007 wt % in water, 0.1 b/s",36.3 dyne/cm
same,Dynamic Surface Tension,"[2]; 0.007 wt % in water, 1 b/s",59.2 dyne/cm
same,Dynamic Surface Tension,"[2]; 0.007 wt % in water, 6 b/s",70.3 dyne/cm
same,Dynamic Surface Tension,"[2]; 0.007 wt % in water, 15 b/s",72.3 dyne/cm
same,Dynamic Surface Tension,"[2]; 0.007 wt % in water, 20 b/s",72.9 dyne/cm
same,Dynamic Surface Tension,"[2]; 0.01 wt % in water, 0.1 b/s",32.4 dyne/cm
same,Dynamic Surface Tension,"[2]; 0.01 wt % in water, 1 b/s",55.4 dyne/cm
same,Dynamic Surface Tension,"[2]; 0.01 wt % in water, 6 b/s",69.1 dyne/cm
same,Dynamic Surface Tension,"[2]; 0.01 wt % in water, 15 b/s",72.5 dyne/cm
same,Dynamic Surface Tension,"[2]; 0.01 wt % in water, 20 b/s",72.8 dyne/cm
"CCCCCCNC=O [n-HF, n-hexylformamide]",solubility limit,[1],1.1 wt %
same,Dynamic Surface Tension,"[2]; 0.1 wt % in water, 0.1 b/s (Table 4)",56.0 dynes/cm
same,Dynamic Surface Tension,"[2]; 0.1 wt % in water, 1 b/s (Table 4)",57.6 dynes/cm
same,Dynamic Surface Tension,"[2]; 0.1 wt % in water, 6 b/s (Table 4)",58.8 dynes/cm
same,Dynamic Surface Tension,"[2]; 0.1 wt % in water, 15 b/s (Table 4)",60.3 dynes/cm
same,Dynamic Surface Tension,"[2]; 0.1 wt % in water, 20 b/s (Table 4)",60.6 dynes/cm
same,Dynamic Surface Tension,"[2]; 0.5 wt % in water, 0.1 b/s",37.2 dynes/cm
same,Dynamic Surface Tension,"[2]; 0.5 wt % in water, 1 b/s",38.0 dynes/cm
same,Dynamic Surface Tension,"[2]; 0.5 wt % in water, 6 b/s",38.8 dynes/cm
same,Dynamic Surface Tension,"[2]; 0.5 wt % in water, 15 b/s",40.1 dynes/cm
same,Dynamic Surface Tension,"[2]; 0.5 wt % in water, 20 b/s",40.3 dynes/cm
same,Dynamic Surface Tension,"[2]; 1.0 wt % in water, 0.1 b/s",28.4 dynes/cm
same,Dynamic Surface Tension,"[2]; 1.0 wt % in water, 1 b/s",29.0 dynes/cm
same,Dynamic Surface Tension,"[2]; 1.0 wt % in water, 6 b/s",29.6 dynes/cm
same,Dynamic Surface Tension,"[2]; 1.0 wt % in water, 15 b/s",30.1 dynes/cm
same,Dynamic Surface Tension,"[2]; 1.0 wt % in water, 20 b/s",31.1 dynes/cm
same,surface tension,"[2]; 1.0 wt % solution, 20 b/s",31.1 dyne/cm
same,Dynamic Surface Tension,"[2]; 2.0 wt % in water, 0.1 b/s",27.4 dynes/cm
same,Dynamic Surface Tension,"[2]; 2.0 wt % in water, 1 b/s",28.4 dynes/cm
same,Dynamic Surface Tension,"[2]; 2.0 wt % in water, 6 b/s",29.3 dynes/cm
same,Dynamic Surface Tension,"[2]; 2.0 wt % in water, 15 b/s",30.7 dynes/cm
same,Dynamic Surface Tension,"[2]; 2.0 wt % in water, 20 b/s",30.3 dynes/cm
same,foaming of aqueous solutions (in words),[3],almost no foam
"CCCCCCCCNC=O [n-OF, n-octylformamide]",solubility limit,[1],0.1 wt %
same,Dynamic Surface Tension,"[2]; 0.03 wt % in water, 0.1 b/s",42.8 dyne/cm
same,Dynamic Surface Tension,"[2]; 0.03 wt % in water, 1 b/s",46.1 dyne/cm
same,Dynamic Surface Tension,"[2]; 0.03 wt % in water, 6 b/s",52.2 dyne/cm
same,Dynamic Surface Tension,"[2]; 0.03 wt % in water, 15 b/s",58.5 dyne/cm
same,Dynamic Surface Tension,"[2]; 0.03 wt % in water, 20 b/s",60.4 dyne/cm
same,Dynamic Surface Tension,"[2]; 0.05 wt % in water, 0.1 b/s",35.6 dyne/cm
same,Dynamic Surface Tension,"[2]; 0.05 wt % in water, 1 b/s",37.7 dyne/cm
same,Dynamic Surface Tension,"[2]; 0.05 wt % in water, 6 b/s",42.5 dyne/cm
same,Dynamic Surface Tension,"[2]; 0.05 wt % in water, 15 b/s",48.6 dyne/cm
same,Dynamic Surface Tension,"[2]; 0.05 wt % in water, 20 b/s",50.5 dyne/cm
same,Dynamic Surface Tension,"[2]; 0.07 wt % in water, 0.1 b/s",30.9 dyne/cm
same,Dynamic Surface Tension,"[2]; 0.07 wt % in water, 1 b/s",32.5 dyne/cm
same,Dynamic Surface Tension,"[2]; 0.07 wt % in water, 6 b/s",36.3 dyne/cm
same,Dynamic Surface Tension,"[2]; 0.07 wt % in water, 15 b/s",41.5 dyne/cm
same,Dynamic Surface Tension,"[2]; 0.07 wt % in water, 20 b/s",43.7 dyne/cm
same,Dynamic Surface Tension,"[2]; 0.1 wt % in water, 1 b/s",26.6 dyne/cm
same,Dynamic Surface Tension,"[2]; 0.1 wt % in water, 6 b/s",28.7 dyne/cm
same,Dynamic Surface Tension,"[2]; 0.1 wt % in water, 15 b/s",34.4 dyne/cm
